# Reference: patent US8609151B2, “Treatment of erectile dysfunction and libido enhancement” (CSIR, priority 2006, dated 2013)
# Entries after “also recorded” stand apart in the source; their conditions may differ. Like-named read-outs stand apart in the source and are kept apart here.
# Columns and labels:
# [1] = tested on: rabbit corpus cavernosal smooth muscle; assay: relaxation of CaCl2 pre-contracted rabbit corpus cavernosal smooth muscle strips (University of Pretoria); format: cell-based
# Description: Strips (12 mm long and 1-2 mm thick) of rabbit corpus cavernosal smooth muscle were dissected and mounted in an organ-bath chamber containing Krebs-PSS solution with the following composition: […] One end of the muscle was tied to the inside bottom of the perfusion bath and the other end to a thin wire connected to a Harvard isotonic force transducer for isotonic tension measurements. Changes in isotonic tension were recorded on a computerized calibrating program. […] This was followed by perfusion with 2 ml of high CaCl2 in Krebs-PSS (17.8 mg/ml) for muscle contraction. Base-line tension was set at the point of maximal contraction following the addition of CaCl2 into the experimental bath. The extracts to be analyzed were added after a stable contraction base-line. The same procedure was repeated for the positive control, Sildenafil. The contraction/relaxation was reported relative to Sildenafil tested at 78 ng/ml.
# [2] = tested on: Chinese hamster ovarian cells (CHO); assay: in vitro cytotoxicity, MTT assay; conditions: for IC50: Cricetulus griseus; for cytotoxicity against Chinese hamster ovarian cells: at the test concentrations
# Description: In vitro cytotoxicity against mammalian cell line was assayed against Chinese hamster ovarian cells by the Assay Laboratory of the Department of Medicine, Division of Pharmacology, University of Cape Town, South Africa.
# All samples were tested in triplicate on a single occasion. The MTT-assay was used as a calorimetric assay for cellular growth and survival, and compares well with other available assays (Mosman, Journal of Immunological Methods 65, 55-63 (1983) and Rubinstein et al., Journal of the National Cancer Institute 82, 1113-8 (1990)). The tetrazolium salt MTT was used to measure all growth and chemosensitivity.
# Aqueous samples were dissolved in water and organic samples were dissolved in a methanol:water mixture (1:9) by volume. The initial concentration of stock solutions was 2 mg/ml for all samples. Samples were stored at −20° C. until use. […] Emetine was used as the positive control in all experiments. The initial concentration of emetine was 100 μg/ml, which was serially diluted in complete medium with 10-fold dilutions to give 6 concentrations, the lowest being 0.001 μg/ml. The same dilution technique was applied to all other samples with an initial concentration of 100 μg/ml to give 5 concentrations, with the lowest concentration being 0.01 μg/ml.
# The 50% inhibitory concentration (IC50) values for these samples were obtained from dose-response curves, using a non-linear dose-response curve fitting analyses via GraphPad Prism v.2.01 software.
# rabbit corpus cavernosum = rabbit corpus cavernosum relaxation/contraction, phenylephrine-contracted strip (MDS Pharma); format: cell-based; conditions: for Smooth Muscle relaxation (%) at 30 μM: relative to 0.3 μM sodium nitroprusside response, significant at ≧50%; for rabbit corpus cavernosum smooth muscle relaxation: isolated compounds at test concentration
# Description: Rabbit corpus cavernosum relaxation/contraction was measured by the MDS Pharma Laboratory. Corpus cavernosum obtained from New Zealand-derived albino male rabbits weighing 2.5-3 kg and sacrificed by CO2 overexposure was used. A strip from the basal area of the corpus cavernosal was removed and placed under 2 g tension in a 10 ml bath containing Krebs solution at pH 7.4 at 32° C. and sub-maximal isometrically recorded tonic contraction was induced by phenylephrine (3 μM).
# [3] = target: T1, Phosphodiesterase 5 enzyme, partially purified from human platelets (Homo sapiens, UniProt O76074); assay: in vitro inhibition of the phosphodiesterase 5 enzyme (MDS Pharma); format: biochemical
# T1 construct: Phosphodiesterase 5 enzyme, partially purified from human platelets, was used; tissue MDS Pharma Laboratory in Taiwan (assay performed there); host or cells: human platelets
# Description: Inhibition of the phosphodiesterase 5 enzyme limits the hydrolysis of cyclic Guanisine MonoPhosphate (cGMP) to acyclic Guanisine MonoPhosphate (5′GMP) and thereby increases the intracellular concentrations of cGMP which results in the relaxation of the corpus cavernosum smooth muscle. When this muscle is relaxed blood flows and fills the arteries causing the penis to erect.
# The assay of the inhibition of the phosphodiesterase 5 enzyme was carried out by the MDS Pharma Laboratory in Taiwan. Phosphodiesterase 5 enzyme, partially purified from human platelets, was used. Test compounds and/or vehicles were incubated with 3.5 μg enzyme and 1 μM cGMP containing 0.01 μM [^3H]cGMP in Tris buffer at pH 7.5 for 20 minutes at 30° C. The reaction was terminated by boiling for 2 minutes and the resulting GMP was converted to guanosine by addition of 10 mg/ml snake venom nucleotidase and further incubation at 30° C. for 10 minutes. Unhydrolyzed cGMP was bound to AG1-X2 resin, and remaining [^3H]guanosine in the aqueous phase was quantitated by scintillation counting. […] Since enzyme activity could change from lot to lot, the concentration used was adjusted if necessary.
# [4] = read-out: Chinese hamster ovarian cell test IC50, MTT assay, triplicate, values ≦1.0 considered cytotoxic
# [5] = read-out: Phosphodiesterase 5 enzyme inhibition (%) at 10 μM, 10 μM, significant at ≧50%
SMILES,"IC50 [2, 4] [µg/mL]",Smooth Muscle relaxation (%) at 30 μM (rabbit corpus cavernosum) [%],"inhibition at 10 µM [3, 5] [%]",cytotoxicity against Chinese hamster ovarian cells [2],rabbit corpus cavernosum smooth muscle relaxation (rabbit corpus cavernosum),further results
CCCc1nn(C)c2c(=O)[nH]c(-c3cc(S(=O)(=O)N4CCN(C)CC4)ccc3OCC)nc12 [Viagra],–,–,–,–,–,"relaxation ([1]; at […] 10^−2 μg/ml, footnote of Table 14, same figure as the Table 13 footnote): 100%; smooth muscle relaxation ([1]; at […] 10^−5 mg/ml, positive control): Viagra showed 100% smooth muscle relaxation at 1.8 × 10^−5 mg/ml"
"CC[C@H]1CN2CCc3cc(OC)c(OC)cc3[C@@H]2C[C@@H]1C[C@H]1NCCc2cc(OC)c(OC)cc21 [Emetine, reference compound]",0.04,–,–,–,–,–
"COc1ccc(CC2COC(=O)/C2=C\c2ccc3c(c2)OCO3)cc1OC (stereo not drawn) [Compound 6, 3-(1′,3′-benzodioxol-5′-ylmethylene)-4-(3″,4″-dimethoxybenzyl)dihydrofuran-2(5H)-one]",> 100,71,35,non-cytotoxic; also recorded: least toxic,–,–
"COc1cc2c(-c3ccc4c(c3)OCO4)c3c(c(OC)c2c(OC)c1OC)COC3=O [Compound 3, 9-(1′,3′-benzodioxol-5′-yl)-4,5,6,7-tetramethoxynaphtho[2,3-c]furan-1(3H)-one]",–,62,–,–,–,inhibition at 10 µM ([3]; read-out: Phosphodiesterase 5 enzyme inhibition (%) at 10 μM): 11%; IC50 ([2]; read-out: Chinese hamster ovarian cell test IC50): 9 µg/mL
"COc1ccc(-c2c3c(c(O)c4cc5c(cc24)OCO5)COC3=O)cc1OC [Compound 5, 9-(3′,4′-dimethoxyphenyl)-4-hydroxy-6,7-methylenedioxynaphtho[2,3-c]furan-1(3H)-one]",28.5,75,29,non-cytotoxic,observed,–
"COc1ccc(-c2c3c(c(OC)c4cc5c(cc24)OCO5)C(=O)OC3)cc1OC [Compound 7, 4-(3′,4′-dimethoxyphenyl)-9-methoxy-6,7-methylenedioxynaphtho[2,3-c]furan-1(3H)-one]",–,57,–,non-cytotoxic; also recorded: least toxic,observed,"Phosphodiesterase 5 enzyme inhibition (%) at 10 μM ([3]; 10 μM, significant at ≧50%): 53%; phosphodiesterase 5 enzyme inhibition ([3]; isolated compounds at test concentration): Significant inhibition; Chinese hamster ovarian cell test IC50 ([2]; MTT assay, triplicate, values ≦1.0 considered cytotoxic): >100 µg/mL"
